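Five compound concentrations were applied to cells in 96-well plates for 48 hours; endpoints were derived by simple linear interpolation of the resulting dose-response curve. The concentration for 50% growth inhibition is given as GI50.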 Activity calls are given as the source filed them. Rule as the data show it: active = GI50 up to about 1.1 µM and inactive = higher.
What was measured:
Test in all cases: NCI anticancer screen, dose series, 48 h
TK-10 = tested on: TK-10
CAKI-1 = tested on: CAKI-1
KM12 = tested on: KM12
MCF7 = tested on: MCF7
SN12C = tested on: SN12C
HT-29 = tested on: HT-29
ACHN = tested on: ACHN
UACC-62 = tested on: UACC-62
M14 = tested on: M14
SK-MEL-2 = tested on: SK-MEL-2
Malme-3M = tested on: Malme-3M
SK-OV-3 = tested on: SK-OV-3
UACC-257 = tested on: UACC-257
HL-60 = tested on: HL-60
LOX IMVI = tested on: LOX IMVI
COLO 205 = tested on: COLO 205
UO-31 = tested on: UO-31
SNB-75 = tested on: SNB-75
PC-3 = tested on: PC-3
SF-539 = tested on: SF-539
T47D = tested on: T47D
HCT-116 = tested on: HCT-116
HOP-92 = tested on: HOP-92
HOP-62 = tested on: HOP-62
HCC 2998 = tested on: HCC 2998
MDA-MB-435 = tested on: MDA-MB-435
NCI-H522 = tested on: NCI-H522
EKVX = tested on: EKVX
HCT-15 = tested on: HCT-15
OVCAR-5 = tested on: OVCAR-5
SNB-19 = tested on: SNB-19
BT-549 = tested on: BT-549
RPMI-8226 = tested on: RPMI-8226
IGROV-1 = tested on: IGROV-1
MDA-MB-231 = tested on: MDA-MB-231
CCRF-CEM = tested on: CCRF-CEM
SR = tested on: SR
SW-620 = tested on: SW-620
SK-MEL-5 = tested on: SK-MEL-5
Hs-578T = tested on: Hs-578T
SK-MEL-28 = tested on: SK-MEL-28
OVCAR-8 = tested on: OVCAR-8
OVCAR-3 = tested on: OVCAR-3
OVCAR-4 = tested on: OVCAR-4
A498 = tested on: A498
A549 = tested on: A549
SF-268 = tested on: SF-268
RXF 393 = tested on: RXF 393
NCI-H226 = tested on: NCI-H226
SF-295 = tested on: SF-295
MDA-N = tested on: MDA-N
786-0 = tested on: 786-0
MOLT-4 = tested on: MOLT-4
NCI/ADR-RES = tested on: NCI/ADR-RES
NCI-H460 = tested on: NCI-H460
U-251 = tested on: U-251
DU-145 = tested on: DU-145
NCI-H23 = tested on: NCI-H23
K562 = tested on: K562

With `Nc1ccc(-c2nc3cc(F)ccc3s2)cc1Br` the GI50 (TK-10) was 0.0306 µM (active), the GI50 (CAKI-1) was 3.99 µM (inactive) and the GI50 (KM12) was 10.4 µM (inactive). The GI50 (MCF7) was < 0.0111 µM (active), the GI50 (SN12C) was > 73.5 µM (inactive) and the GI50 (HT-29) was 0.368 µM (active). For the same compound, the GI50 (ACHN) was 0.621 µM (active), the GI50 (UACC-62) was > 84.1 µM (inactive) and the GI50 (M14) was > 95.5 µM (inactive). The GI50 (SK-MEL-2) was > 89.5 µM (inactive), the GI50 (Malme-3M) was 33 µM (inactive) and the GI50 (SK-OV-3) was > 59 µM (inactive). The GI50 (UACC-257) was > 100 µM (inactive), the GI50 (HL-60) was 4.71 µM (inactive) and the GI50 (LOX IMVI) was > 51.2 µM (inactive). For the same compound, the GI50 (COLO 205) was 0.377 µM (active), the GI50 (UO-31) was 37.6 µM (inactive) and the GI50 (SNB-75) was 18.3 µM (inactive). For the same compound, the GI50 (PC-3) was 26.6 µM (inactive), the GI50 (SF-539) was > 41.5 µM (inactive) and the GI50 (T47D) was 0.038 µM (active). For the same compound, the GI50 (HCT-116) was 0.0552 µM (active), the GI50 (HOP-92) was 29.1 µM (inactive) and the GI50 (HOP-62) was 12.7 µM (inactive). For the same compound, the GI50 (HCC 2998) was < 0.01 µM (active), the GI50 (MDA-MB-435) was > 100 µM (inactive) and the GI50 (NCI-H522) was > 42.8 µM (inactive). The GI50 (EKVX) was 2.71 µM (inactive), the GI50 (HCT-15) was 0.144 µM and the GI50 (OVCAR-5) was 0.0904 µM (active). The GI50 (SNB-19) was 53.3 µM (inactive), the GI50 (BT-549) was 7.69 µM (inactive) and the GI50 (RPMI-8226) was > 78.2 µM (inactive). For the same compound, the GI50 (IGROV-1) was < 0.01 µM (active), the GI50 (MDA-MB-231) was 8.95 µM (inactive) and the GI50 (CCRF-CEM) was > 100 µM (inactive). For the same compound, the GI50 (SR) was < 0.01 µM (active), the GI50 (SW-620) was > 93.8 µM (inactive) and the GI50 (SK-MEL-5) was 33.1 µM (inactive). For the same compound, the GI50 (Hs-578T) was 36.7 µM (inactive), the GI50 (SK-MEL-28) was > 100 µM (inactive) and the GI50 (OVCAR-8) was 28.7 µM (inactive). For the same compound, the GI50 (OVCAR-3) was 0.0964 µM (active), the GI50 (OVCAR-4) was 23.8 µM (inactive) and the GI50 (A498) was 14.7 µM (inactive). The GI50 (A549) was 8.97 µM (inactive), the GI50 (SF-268) was 42 µM (inactive) and the GI50 (RXF 393) was 25.5 µM (inactive). For the same compound, the GI50 (NCI-H226) was 0.0504 µM (active), the GI50 (SF-295) was 23.5 µM (inactive) and the GI50 (MDA-N) was > 100 µM (inactive). For the same compound, the GI50 (786-0) was 59 µM (inactive), the GI50 (MOLT-4) was > 100 µM (inactive) and the GI50 (NCI/ADR-RES) was > 56.8 µM (inactive). For the same compound, the GI50 (NCI-H460) was 0.0458 µM (active), the GI50 (U-251) was 18.1 µM (inactive) and the GI50 (DU-145) was 55.7 µM (inactive).
In the case of `CNC1=C(C)C(=O)C(O)=C([C@H](C)CCC=C(C)C)C1=O`, the GI50 (TK-10) is reported as 31 µM (inactive), the GI50 (CAKI-1) is reported as 11.6 µM (inactive) and the GI50 (KM12) is reported as 17 µM (inactive). For the same compound, the GI50 (MCF7) was 37.2 µM (inactive), the GI50 (SN12C) was 22.8 µM (inactive) and the GI50 (HT-29) was 36.6 µM (inactive). The GI50 (ACHN) was 11.2 µM (inactive), the GI50 (UACC-62) was 13 µM (inactive) and the GI50 (M14) was 22.2 µM (inactive). For the same compound, the GI50 (SK-MEL-2) was 17.7 µM (inactive), the GI50 (Malme-3M) was 16 µM (inactive) and the GI50 (SK-OV-3) was 23.9 µM (inactive). For the same compound, the GI50 (UACC-257) was 32.7 µM (inactive), the GI50 (HL-60) was 2.4 µM (inactive) and the GI50 (LOX IMVI) was 14.7 µM (inactive). For the same compound, the GI50 (COLO 205) was 25.4 µM (inactive), the GI50 (UO-31) was 9.82 µM (inactive) and the GI50 (SNB-75) was 18 µM (inactive). The GI50 (PC-3) was 22.6 µM (inactive), the GI50 (T47D) was 25.4 µM (inactive) and the GI50 (HCT-116) was 33.9 µM (inactive). The GI50 (HOP-92) was 33.1 µM (inactive), the GI50 (HOP-62) was 12.8 µM (inactive) and the GI50 (HCC 2998) was 31.8 µM (inactive). The GI50 (MDA-MB-435) was 29.6 µM (inactive), the GI50 (NCI-H522) was 3.77 µM (inactive) and the GI50 (EKVX) was 2.33 µM (inactive). For the same compound, the GI50 (HCT-15) was 6.92 µM, the GI50 (OVCAR-5) was 77.8 µM (inactive) and the GI50 (SNB-19) was 31.8 µM (inactive). The GI50 (NCI-H23) was 20 µM (inactive), the GI50 (BT-549) was 52.2 µM (inactive) and the GI50 (RPMI-8226) was 2.94 µM (inactive). The GI50 (IGROV-1) was 3.91 µM (inactive), the GI50 (MDA-MB-231) was 48 µM (inactive) and the GI50 (CCRF-CEM) was 3.95 µM (inactive). The GI50 (SR) was 7.38 µM (inactive), the GI50 (K562) was 29 µM (inactive) and the GI50 (SW-620) was 23.9 µM (inactive). The GI50 (SK-MEL-5) was 14.4 µM (inactive), the GI50 (Hs-578T) was 28.3 µM (inactive) and the GI50 (SK-MEL-28) was 31.4 µM (inactive). For the same compound, the GI50 (OVCAR-8) was 10.7 µM (inactive), the GI50 (OVCAR-3) was 11.7 µM (inactive) and the GI50 (OVCAR-4) was 11.7 µM (inactive). The GI50 (A498) was 19.5 µM (inactive), the GI50 (A549) was 20.3 µM (inactive) and the GI50 (SF-268) was 19.1 µM (inactive). The GI50 (RXF 393) was 30.7 µM (inactive), the GI50 (NCI-H226) was 22.1 µM (inactive) and the GI50 (SF-295) was 11.4 µM (inactive). The GI50 (MDA-N) was 29.6 µM (inactive), the GI50 (786-0) was 24.9 µM (inactive) and the GI50 (MOLT-4) was 6.18 µM (inactive). The GI50 (NCI/ADR-RES) was 5.21 µM (inactive), the GI50 (NCI-H460) was 10.5 µM (inactive) and the GI50 (U-251) was 27.7 µM (inactive). The GI50 (DU-145) was 30.6 µM (inactive).
`CCOC(=O)/C(=C\c1c[nH]c2ccccc12)P(=O)(OCC)OCC` was tested, and the GI50 (TK-10) was 42.6 µM (inactive), the GI50 (CAKI-1) was > 100 µM (inactive) and the GI50 (KM12) was 33.2 µM (inactive). For the same compound, the GI50 (MCF7) was 50.8 µM (inactive), the GI50 (SN12C) was 30.5 µM (inactive) and the GI50 (HT-29) was 28.4 µM (inactive). The GI50 (ACHN) was 41.4 µM (inactive), the GI50 (UACC-62) was 32.9 µM (inactive) and the GI50 (M14) was 39.6 µM (inactive). The GI50 (Malme-3M) was 18.9 µM (inactive), the GI50 (SK-OV-3) was 30.5 µM (inactive) and the GI50 (UACC-257) was 45.3 µM (inactive). The GI50 (HL-60) was 37.5 µM (inactive), the GI50 (LOX IMVI) was 20.6 µM (inactive) and the GI50 (COLO 205) was 20.7 µM (inactive). For the same compound, the GI50 (SNB-75) was 26.5 µM (inactive), the GI50 (PC-3) was 17.4 µM (inactive) and the GI50 (SF-539) was 21.9 µM (inactive). The GI50 (T47D) was 43.8 µM (inactive), the GI50 (HCT-116) was 32.9 µM (inactive) and the GI50 (HOP-92) was 29.2 µM (inactive). For the same compound, the GI50 (HOP-62) was 42.6 µM (inactive), the GI50 (HCC 2998) was 65.3 µM (inactive) and the GI50 (MDA-MB-435) was 40.9 µM (inactive). For the same compound, the GI50 (NCI-H522) was 26.8 µM (inactive), the GI50 (EKVX) was 59.8 µM (inactive) and the GI50 (HCT-15) was 27.7 µM. The GI50 (OVCAR-5) was 26.2 µM (inactive), the GI50 (SNB-19) was 62.7 µM (inactive) and the GI50 (NCI-H23) was 29.6 µM (inactive). For the same compound, the GI50 (BT-549) was 25.4 µM (inactive), the GI50 (RPMI-8226) was 33.5 µM (inactive) and the GI50 (IGROV-1) was 39 µM (inactive). The GI50 (MDA-MB-231) was 27.7 µM (inactive), the GI50 (CCRF-CEM) was 16.7 µM (inactive) and the GI50 (SR) was 25.1 µM (inactive). The GI50 (K562) was 50.9 µM (inactive), the GI50 (SW-620) was 45.7 µM (inactive) and the GI50 (SK-MEL-5) was 55.8 µM (inactive). For the same compound, the GI50 (Hs-578T) was 42.8 µM (inactive), the GI50 (SK-MEL-28) was 36.8 µM (inactive) and the GI50 (OVCAR-8) was 22.3 µM (inactive). For the same compound, the GI50 (OVCAR-3) was 19.3 µM (inactive), the GI50 (OVCAR-4) was 23.9 µM (inactive) and the GI50 (A498) was 28.8 µM (inactive). For the same compound, the GI50 (A549) was 40.5 µM (inactive), the GI50 (SF-268) was 29.5 µM (inactive) and the GI50 (RXF 393) was 33.6 µM (inactive). The GI50 (NCI-H226) was 28.3 µM (inactive), the GI50 (SF-295) was 39.9 µM (inactive) and the GI50 (MDA-N) was 35.8 µM (inactive). For the same compound, the GI50 (786-0) was 31.3 µM (inactive), the GI50 (MOLT-4) was 55.1 µM (inactive) and the GI50 (NCI/ADR-RES) was 25.3 µM (inactive). For the same compound, the GI50 (NCI-H460) was 24.5 µM (inactive), the GI50 (U-251) was 33.8 µM (inactive) and the GI50 (DU-145) was 46.1 µM (inactive).
